Paper PMC6422671 (British Journal of Clinical Pharmacology, 2019)

Assay: Vital signs; data mean (standard deviation)
Format: in vivo, healthy men
Excerpt: Data are mean (standard deviation)

## C[C@@H](N)c1cc(Cl)ccc1Cn1c(=S)[nH]c(=O)c2[nH]ccc21 [AZD4831]
5 mg fasted, 0.5 h
  DBP: 71 (7) mmHg
  Pulse: 61 (4) bpm
  SBP: 116 (10) mmHg
5 mg fasted, 1 h
  DBP: 71 (7) mmHg
  Pulse: 61 (5) bpm
  SBP: 114 (8) mmHg
5 mg fasted, 2 h
  DBP: 71 (5) mmHg
  Pulse: 60 (4) bpm
  SBP: 119 (10) mmHg
5 mg fasted, 3 h
  DBP: 72 (9) mmHg
  Pulse: 60 (4) bpm
  SBP: 119 (12) mmHg
5 mg fasted, 4 h
  DBP: 71 (7) mmHg
  Pulse: 64 (5) bpm
  SBP: 118 (9) mmHg
5 mg fasted, 6 h
  DBP: 69 (8) mmHg
  Pulse: 68 (5) bpm
  SBP: 118 (11) mmHg
5 mg fasted, 8 h
  DBP: 68 (5) mmHg
  Pulse: 62 (5) bpm
  SBP: 117 (9) mmHg
5 mg fasted, 12 h
  DBP: 69 (9) mmHg
  Pulse: 68 (4) bpm
  SBP: 118 (13) mmHg
5 mg fasted, 24 h
  DBP: 69 (5) mmHg
  Pulse: 59 (5) bpm
  SBP: 112 (5) mmHg
5 mg fasted, 36 h
  DBP: 69 (4) mmHg
  Pulse: 68 (5) bpm
  SBP: 119 (6) mmHg
5 mg fasted, 48 h
  DBP: 70 (4) mmHg
  Pulse: 64 (9) bpm
  SBP: 116 (8) mmHg
15 mg fasted, 0.5 h
  DBP: 68 (4) mmHg
  Pulse: 58 (9) bpm
  SBP: 115 (7) mmHg
15 mg fasted, 1 h
  DBP: 67 (4) mmHg
  Pulse: 61 (9) bpm
  SBP: 115 (8) mmHg
15 mg fasted, 2 h
  DBP: 65 (2) mmHg
  Pulse: 58 (6) bpm
  SBP: 113 (4) mmHg
15 mg fasted, 3 h
  DBP: 65 (3) mmHg
  Pulse: 58 (4) bpm
  SBP: 112 (5) mmHg
15 mg fasted, 4 h
  DBP: 66 (6) mmHg
  Pulse: 59 (8) bpm
  SBP: 113 (5) mmHg
15 mg fasted, 6 h
  DBP: 65 (2) mmHg
  Pulse: 68 (9) bpm
  SBP: 119 (9) mmHg
15 mg fasted, 8 h
  DBP: 64 (2) mmHg
  Pulse: 63 (11) bpm
  SBP: 116 (7) mmHg
15 mg fasted, 12 h
  DBP: 64 (4) mmHg
  Pulse: 69 (10) bpm
  SBP: 119 (5) mmHg
15 mg fasted, 24 h
  DBP: 67 (2) mmHg
  Pulse: 62 (7) bpm
  SBP: 113 (4) mmHg
15 mg fasted, 36 h
  DBP: 63 (4) mmHg
  Pulse: 73 (9) bpm
  SBP: 118 (5) mmHg
15 mg fasted, 48 h
  DBP: 66 (5) mmHg
  Pulse: 65 (12) bpm
  SBP: 114 (7) mmHg
45 mg fasted, 0.5 h
  DBP: 73 (14) mmHg
  Pulse: 59 (11) bpm
  SBP: 122 (13) mmHg
45 mg fasted, 1 h
  DBP: 72 (14) mmHg
  Pulse: 57 (10) bpm
  SBP: 125 (12) mmHg
45 mg fasted, 2 h
  DBP: 69 (15) mmHg
  Pulse: 59 (10) bpm
  SBP: 122 (17) mmHg
45 mg fasted, 3 h
  DBP: 70 (13) mmHg
  Pulse: 60 (8) bpm
  SBP: 120 (14) mmHg
45 mg fasted, 4 h
  DBP: 69 (16) mmHg
  Pulse: 58 (8) bpm
  SBP: 121 (13) mmHg
45 mg fasted, 6 h
  DBP: 66 (7) mmHg
  Pulse: 61 (10) bpm
  SBP: 120 (9) mmHg
45 mg fasted, 8 h
  DBP: 68 (15) mmHg
  Pulse: 59 (11) bpm
  SBP: 116 (11) mmHg
45 mg fasted, 12 h
  DBP: 68 (11) mmHg
  Pulse: 63 (12) bpm
  SBP: 124 (12) mmHg
45 mg fasted, 24 h
  DBP: 71 (11) mmHg
  Pulse: 58 (11) bpm
  SBP: 118 (9) mmHg
45 mg fasted, 36 h
  DBP: 66 (14) mmHg
  Pulse: 66 (11) bpm
  SBP: 121 (9) mmHg
45 mg fasted, 48 h
  DBP: 69 (11) mmHg
  Pulse: 64 (13) bpm
  SBP: 120 (10) mmHg
